The text below walks through data of US9414596B2, “Metalloenzyme inhibitor compounds” (Viamet Pharmaceuticals, Inc., priority 2012, dated 2016).

For the test, the system named is Septoria tritici (ATCC 26517). As to the kind of experiment: Minimum Inhibitory Concentration (MIC) (Septoria tritici), CLSI-based microdilution. Format: cell-based. Conditions: S. tritici ATCC 26517, seven days at 22° C. in the dark, MIC = 50% reduction in growth, visual; for MIC: Zymoseptoria tritici, ATCC26517, 168 h, read-out: Septoria MIC Rating. On the procedure: B. Minimum Inhibitory Concentration (MIC) (Septoria tritici)
Compounds of the present disclosure were assessed for their ability to inhibit the growth of a common strain of the fungal plant pathogen Septoria tritici (ATCC 26517) using a procedure based on a Clinical and Laboratory Standards Institute (CLSI) microdilution assay protocol for filamentous fungi.
Stock solutions of the test compounds and standards were prepared in DMSO at 6400 μg/mL. Each stock solution was used to prepare a 2-fold dilution series ranging from 16 to 0.016 μg/mL (total of 11 compound concentrations) in RPMI-1640 (Roswell Park Memorial Institute) medium containing 3-(N-morpholino)propanesulfonic acid (MOPS) buffer and 2% DMSO. A 100 μL aliquot of the dilutions was added to columns 1 (16 μg/mL compound) through 11 (0.016 μg/mL compound) of a 96-well microtiter plate. This format was replicated in a second row of the microtiter plate. Thus, each microtiter plate could include 11 concentrations of four test or control compounds replicated twice. A 100 μL aliquot of RPMI-1640/MOPS/2% DMSO medium was added to column 12 (no compound control) of the microtiter plate.
A fresh culture of S. tritici was used to prepare a solution of approximately 5×10^4 colony-forming units per milliliter (cfu/mL) in RPMI/MOPS medium without DMSO. A 100 μL aliquot of this solution was added to all 96 wells in the microtiter plate. […] The assay plates were incubated at 22° C. for seven days in the dark without shaking.

≈ marks a conversion by molar mass, not a printed value. A value given as a limit tells only on which side of the number the result lay.

As to `N#Cc1cccc(-c2ccc(C(F)(F)C(O)(Cn3cnnn3)c3ccc(F)cc3F)nc2)c1` (stereo not shown) [Example 3, 3-(6-(2-(2,4-Difluorophenyl)-1,1-difluoro-2-hydroxy-3-(1H-tetrazol-1-yl)propyl)pyridin-3-yl)benzonitrile], the MIC was 1.5 to 4 mg/L (≈ 3.3 to 8.8 µM).

In the case of `OC(Cn1cnnn1)(c1ccc(F)cc1F)C(F)(F)c1ccc(-c2cccc(OC(F)(F)F)c2)cn1` (stereo not shown) [Example 6, 2-(2,4-Difluorophenyl)-1,1-difluoro-3-(1H-tetrazol-1-yl)-1-(5-(3-(trifluoromethoxy)phenyl)-pyridin-2-yl)propan-2-ol], the MIC lay within 1.5 to 4 mg/L (≈ 2.92 to 7.79 µM).

Turning to `CC(F)(c1ccc(-c2ccc(Cl)cc2)cn1)C(O)(Cn1cnnn1)c1ccc(F)cc1F` (stereo not shown) [Example 55, 3-(5-(4-Chlorophenyl)pyridin-2-yl)-2-(2,4-difluorophenyl)-3-fluoro-1-(1H-tetrazol-1-yl)butan-2-ol], the MIC is 1.5 to 4 mg/L (≈ 3.26 to 8.7 µM).

On to `Oc1cccc(-c2ccc(C(F)(F)C(O)(Cn3cnnn3)c3ccc(F)cc3F)nc2)c1` (stereo not shown) [Example 30, 3-(6-(2-(2,4-Difluorophenyl)-1,1-difluoro-2-hydroxy-3-(1H-tetrazol-1-yl)propyl)pyridin-3-yl)phenol], for which the MIC was under 0.5 mg/L.

`OC(Cn1cnnn1)(c1ccc(F)cc1F)C(F)(F)c1ccc(-c2cccc(C(F)(F)F)c2)cn1` (stereo not shown) [Example 31, 2-(2,4-Difluorophenyl)-1,1-difluoro-3-(1H-tetrazol-1-yl)-1-(5-(3-(trifluoromethyl)phenyl)pyridin-2-yl)propan-2-ol]: the MIC fell in the range of 0.5 to 1.5 mg/L (≈ 1.01 to 3.02 µM).

In the case of `O=[N+]([O-])c1ccc(-c2ccc(C(F)(F)C(O)(Cn3cnnn3)c3ccc(F)cc3F)nc2)cc1` (stereo not shown) [Example 32, 2-(2,4-Difluorophenyl)-1,1-difluoro-1-(5-(4-nitrophenyl)pyridin-2-yl)-3-(1H-tetrazol-1-yl)propan-2-ol], the MIC fell in the range of 0.5 to 1.5 mg/L (≈ 1.05 to 3.16 µM).

`CC(C)c1cccc(-c2ccc(C(F)(F)C(O)(Cn3cnnn3)c3ccc(F)cc3F)nc2)c1` (stereo not shown) [Example 24, 2-(2,4-Difluorophenyl)-1,1-difluoro-1-(5-(3-isopropylphenyl)pyridin-2-yl)-3-(1H-tetrazol-1-yl)propan-2-ol]: the MIC lay within 0.5 to 1.5 mg/L (≈ 1.06 to 3.18 µM).

With `CC(F)(c1ccc(-c2ccc(OCC(F)(F)F)cc2)cn1)C(O)(Cn1cnnn1)c1ccc(F)cc1F` (stereo not shown) [Example 57, 2-(2,4-Difluorophenyl)-3-fluoro-1-(1H-tetrazol-1-yl)-3-(5-(4-(2,2,2-trifluoroethoxy)phenyl)pyridin-2-yl)butan-2-ol], the MIC lay in the range of 1.5 to 4 mg/L (≈ 2.87 to 7.64 µM).

Take `CC(F)(c1ccc(-c2ccc(OC(F)(F)F)cc2)cn1)C(O)(Cn1cnnn1)c1ccc(F)cc1F` (stereo not shown) [Example 47, 2-(2,4-Difluorophenyl)-3-fluoro-1-(1H-tetrazol-1-yl)-3-(5-(4-(trifluoromethoxy)phenyl)-pyridin-2-yl)butan-2-ol]: the “Septoria MIC Rating” value is on record as “B (>0.5-1.5)”.

Consider `OC(Cn1cnnn1)(c1ccc(F)cc1F)C(F)(F)c1ccc(-c2cccc(OC(F)F)c2)cn1` (stereo not shown) [Example 26, 1-(5-(3-(Difluoromethoxy)phenyl)pyridin-2-yl)-2-(2,4-difluorophenyl)-1,1-difluoro-3-(1H-tetrazol-1-yl)propan-2-ol], for which the MIC was 0.5 to 1.5 mg/L (≈ 1.01 to 3.03 µM).

Consider `OC(Cn1cncn1)(c1ccc(F)cc1F)C(F)(F)c1ccc(-c2ccc(OC(F)(F)F)cc2)cn1` (stereo not shown) [Example 18, 2-(2,4-Difluorophenyl)-1,1-difluoro-3-(1H-1,2,4-triazol-1-yl)-1-(5-(4-(trifluoromethoxy)phenyl)pyridin-2-yl) propan-2-ol], for which the minimal inhibitory concentration (MIC) is under 0.5 mg/L.

For the compound `OC(Cn1cnnn1)(c1ccc(F)cc1F)C(F)(F)c1ccc(-c2ccc(F)c(F)c2)cn1` (stereo not shown) [Example 25, 2-(2,4-Difluorophenyl)-1-(5-(3,4-difluorophenyl)pyridin-2-yl)-1,1-difluoro-3-(1H-tetrazol-1-yl)propan-2-ol], the MIC was under 0.5 mg/L.

Turning to `OC(Cn1cnnn1)(c1ccc(F)cc1F)C(F)(F)c1ccc(-c2ccc(Cl)cc2)cn1` (stereo not shown) [Example 9, 1-(5-(4-Chlorophenyl)pyridin-2-yl)-2-(2,4-difluorophenyl)-1,1-difluoro-3-(1H-tetrazol-1-yl)propan-2-ol], the MIC was under 0.5 mg/L.

Usually MIC stands for the lowest concentration that inhibits growth of the organism.
